Results published in US6355799B1, “Substituted benzene compounds, process for their preparation, and herbicidal and defoliant compositions containing them” (ISK Americas Incorporated, priority 1997, dated 2002).

Legend:
Format in all cases: in vivo
[1] = system: large crabgrass (Digitaria sanguinalis, DIGSA); test: Pre-emerge test, greenhouse herbicide activity screening; conditions: pre-emerge, phytotoxicity rating 0-100 at 14 days after application
Procedure, shortened: (§1)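 Sandy loam pots; pre-emerge: sown 1 d pre-spray, surface-watered after, then bottom-watered. Post-emerge: sown 8–21 d before, 2–3 leaf stage, + 0.25% v/v NIS, bottom-watered. Acetone, 187 l/ha track spray, 15–1000 g ai/ha. 0–100 injury score, day 14.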

[2] = system: ivyleaf morningglory (Ipomoea hederacea, IPOHE); test: as above; conditions: pre-emerge, phytotoxicity rating 0-100 at 14 days after application
Procedure, shortened: as §1

[3] = system: johnsongrass (Sorghum halepense, SORHA); test: as above; conditions: pre-emerge, phytotoxicity rating 0-100 at 14 days after application
Procedure, shortened: as §1

[4] = system: lambsquarters (Chenopodium album, CHEAL); test: as above; conditions: pre-emerge, phytotoxicity rating 0-100 at 14 days after application
Procedure, shortened: as §1

[5] = system: velvetleaf (Abutilon theophrasti, ABUTH); test: as above; conditions: pre-emerge, phytotoxicity rating 0-100 at 14 days after application
Procedure, shortened: as §1

[6] = system: green foxtail (Setaria viridis, SETVI); test: as above; conditions: pre-emerge, phytotoxicity rating 0-100 at 14 days after application
Procedure, shortened: as §1

[7] = system: barnyardgrass (Echinochloa crus-galli, ECHCG); test: as above; conditions: pre-emerge, phytotoxicity rating 0-100 at 14 days after application
Procedure, shortened: as §1

[8] = system: sicklepod (Cassia obtusifolia, CASOB); test: as above; conditions: pre-emerge, phytotoxicity rating 0-100 at 14 days after application
Procedure, shortened: as §1

[9] = system: redroot pigweed (Amaranthus retroflexus, AMARE); test: as above; conditions: pre-emerge, phytotoxicity rating 0-100 at 14 days after application
Procedure, shortened: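 Compounds in acetone were track-sprayed at 187 l/ha, 15–1000 g ai/ha, onto sandy loam pots. Pre-emerge seeds were sown one day before spraying, with surface watering afterwards. Post-emerge plants were at the 2–3 leaf stage and sprayed with 0.25% v/v non-ionic surfactant. Injury was rated 0–100 at 14 days.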

[10] = system: upland rice (Oryza sp., var. Tebonnet, RICE); test: Post-emerge test, crop safety; conditions: post-emerge, crop damage rating 0-100 at 14 days after application
Procedure, shortened: as §1

[11] = system: field corn (Zea mays L., var. Dekalb 535, CORN); test: Post-emerge test, crop safety; conditions: post-emerge, crop damage rating 0-100 at 14 days after application
Procedure, shortened: as §1

[12] = system: large crabgrass (Digitaria sanguinalis, DIGSA); test: Post-emerge test, greenhouse herbicide activity screening; conditions: post-emerge, phytotoxicity rating 0-100 at 14 days after application
Procedure, shortened: (§2)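 Herbicidal damage is scored 0 (none) to 100 (complete plant death) two weeks after a simulated field spray. Rates span 15–1000 g ai/ha, delivered in acetone at 187 l/ha. For post-emergence treatments, plants have 2–3 leaves and the spray carries 0.25% v/v non-ionic surfactant.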

[13] = system: ivyleaf morningglory (Ipomoea hederacea, IPOHE); test: as above; conditions: post-emerge, phytotoxicity rating 0-100 at 14 days after application
Procedure, shortened: as §2

[14] = system: johnsongrass (Sorghum halepense, SORHA); test: as above; conditions: post-emerge, phytotoxicity rating 0-100 at 14 days after application
Procedure, shortened: as §2

[15] = system: lambsquarters (Chenopodium album, CHEAL); test: as above; conditions: post-emerge, phytotoxicity rating 0-100 at 14 days after application
Procedure, shortened: as §2

[16] = system: velvetleaf (Abutilon theophrasti, ABUTH); test: as above; conditions: post-emerge, phytotoxicity rating 0-100 at 14 days after application
Procedure, shortened: as §2

[17] = system: green foxtail (Setaria viridis, SETVI); test: as above; conditions: post-emerge, phytotoxicity rating 0-100 at 14 days after application
Procedure, shortened: as §2

[18] = system: redroot pigweed (Amaranthus retroflexus, AMARE); test: as above; conditions: post-emerge, phytotoxicity rating 0-100 at 14 days after application
Procedure, shortened: as §2

[19] = system: barnyardgrass (Echinochloa crus-galli, ECHCG); test: as above; conditions: post-emerge, phytotoxicity rating 0-100 at 14 days after application
Procedure, shortened: as §2

[20] = system: sicklepod (Cassia obtusifolia, CASOB); test: as above; conditions: post-emerge, phytotoxicity rating 0-100 at 14 days after application
Procedure, shortened: as §2

[21] = system: upland rice (Oryza sp., var. Tebonnet, RICE); test: Pre-emerge test, crop safety; conditions: crop damage, pre-emerge, phytotoxicity rating 0-100 at 14 days after application
Procedure, shortened: as §2

[22] = system: field corn (Zea mays L., var. Dekalb 535, CORN); test: Pre-emerge test, crop safety; conditions: crop damage, pre-emerge, phytotoxicity rating 0-100 at 14 days after application
Procedure, shortened: as §2

SMILES: Cc1c(Cl)cc(F)c(-n2c(=O)cc(C(F)(F)F)n(C)c2=O)c1NC(=O)OCc1ccc(Cl)cc1 [4-61]
- Pre-emerge Herbicidal Activity DIGSA ([1]; rate 63 g ai/ha): 50
- Pre-emerge Herbicidal Activity DIGSA ([1]; rate 250 g ai/ha): 90
- Pre-emerge Herbicidal Activity IPOHE ([2]; rate 63 g ai/ha): 30
- Pre-emerge Herbicidal Activity IPOHE ([2]; rate 250 g ai/ha): 60
- Pre-emerge Herbicidal Activity SORHA ([3]; rate 63 g ai/ha): 20
- Pre-emerge Herbicidal Activity SORHA ([3]; rate 250 g ai/ha): 50
- Pre-emerge Herbicidal Activity CHEAL ([4]; rate 63 g ai/ha): 100
- Pre-emerge Herbicidal Activity CHEAL ([4]; rate 250 g ai/ha): 100
- Pre-emerge Herbicidal Activity ABUTH ([5]; rate 63 g ai/ha): 60
- Pre-emerge Herbicidal Activity ABUTH ([5]; rate 250 g ai/ha): 70
- Pre-emerge Herbicidal Activity SETVI ([6]; rate 63 g ai/ha): 80
- Pre-emerge Herbicidal Activity SETVI ([6]; rate 250 g ai/ha): 75
- Pre-emerge Herbicidal Activity ECHCG ([7]; rate 63 g ai/ha): 30
- Pre-emerge Herbicidal Activity ECHCG ([7]; rate 250 g ai/ha): 50
- Pre-emerge Herbicidal Activity CASOB ([8]; rate 63 g ai/ha): 40
- Pre-emerge Herbicidal Activity CASOB ([8]; rate 250 g ai/ha): 30
- Pre-emerge Herbicidal Activity AMARE ([9]; rate 63 g ai/ha): 100
- Pre-emerge Herbicidal Activity AMARE ([9]; rate 250 g ai/ha): 100
- Post-emerge Herbicidal Activity RICE ([10]; 63 g ai/ha): 40
- Post-emerge Herbicidal Activity RICE ([10]; 250 g ai/ha): 80
- Post-emerge Herbicidal Activity CORN ([11]; 63 g ai/ha): 50
- Post-emerge Herbicidal Activity CORN ([11]; 250 g ai/ha): 70
- Post-emerge Herbicidal Activity DIGSA ([12]; 63 g ai/ha): 50
- Post-emerge Herbicidal Activity DIGSA ([12]; 250 g ai/ha): 70
- Post-emerge Herbicidal Activity IPOHE ([13]; 63 g ai/ha): 100
- Post-emerge Herbicidal Activity IPOHE ([13]; 250 g ai/ha): 100
- Post-emerge Herbicidal Activity SORHA ([14]; 63 g ai/ha): 50
- Post-emerge Herbicidal Activity SORHA ([14]; 250 g ai/ha): 70
- Post-emerge Herbicidal Activity CHEAL ([15]; 63 g ai/ha): 100
- Post-emerge Herbicidal Activity CHEAL ([15]; 250 g ai/ha): 100
- Post-emerge Herbicidal Activity ABUTH ([16]; 63 g ai/ha): 100
- Post-emerge Herbicidal Activity ABUTH ([16]; 250 g ai/ha): 100
- Post-emerge Herbicidal Activity SETVI ([17]; 63 g ai/ha): 70
- Post-emerge Herbicidal Activity SETVI ([17]; 250 g ai/ha): 80
- Post-emerge Herbicidal Activity AMARE ([18]; 63 g ai/ha): 100
- Post-emerge Herbicidal Activity AMARE ([18]; 250 g ai/ha): 100
- Post-emerge Herbicidal Activity ECHCG ([19]; 63 g ai/ha): 40
- Post-emerge Herbicidal Activity ECHCG ([19]; 250 g ai/ha): 60
- Post-emerge Herbicidal Activity CASOB ([20]; 63 g ai/ha): 100
- Post-emerge Herbicidal Activity CASOB ([20]; 250 g ai/ha): 100
- Pre-emerge Herbicidal Activity RICE ([21]; rate 63 g ai/ha): 0
- Pre-emerge Herbicidal Activity RICE ([21]; rate 250 g ai/ha): 50
- Pre-emerge Herbicidal Activity CORN ([22]; rate 63 g ai/ha): 0
- Pre-emerge Herbicidal Activity CORN ([22]; rate 250 g ai/ha): 0
